# From PubChem BioAssay (NCI)
#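 In this assay, cells in 96-well plates receive the compound at five concentrations for 48 hours. Endpoints are linearly interpolated between the surrounding concentrations. TGI: concentration producing complete growth inhibition.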
# Assays:
# Assay in all cases: NCI tumour cell line growth inhibition, 48 h
# EKVX NSCLC = system: EKVX NSCLC
# SF-539 CNS = system: SF-539 CNS
# SK-OV-3 ovarian = system: SK-OV-3 ovarian
# ACHN renal = system: ACHN renal
# UACC-257 melanoma = system: UACC-257 melanoma
# HOP-18 NSCLC = system: HOP-18 NSCLC
# HOP-92 NSCLC = system: HOP-92 NSCLC
# UACC-62 melanoma = system: UACC-62 melanoma
# NCI-H226 lung = system: NCI-H226 lung
# M19-MEL melanoma = system: M19-MEL melanoma
# IGROV1 ovarian = system: IGROV1 ovarian
# K-562 leukemia = system: K-562 leukemia
# HCC-2998 colon = system: HCC-2998 colon
# LXFL 529 NSCLC = system: LXFL 529 NSCLC
# UO-31 renal = system: UO-31 renal
# A498 renal = system: A498 renal
# SF-268 CNS = system: SF-268 CNS
# COLO 205 colon = system: COLO 205 colon
# OVCAR-4 ovarian = system: OVCAR-4 ovarian
# DMS 114 small cell lung = system: DMS 114 small cell lung
# SNB-75 CNS = system: SNB-75 CNS
# HL-60(TB) leukemia = system: HL-60(TB) leukemia
# SN12C renal = system: SN12C renal
# NCI-H460 lung = system: NCI-H460 lung
# SNB-78 CNS = system: SNB-78 CNS
# MALME-3M melanoma = system: MALME-3M melanoma
# RXF-631 renal = system: RXF-631 renal
# HCT-15 colon = system: HCT-15 colon
# XF 498 CNS = system: XF 498 CNS
# SK-MEL-5 melanoma = system: SK-MEL-5 melanoma
# M14 melanoma = system: M14 melanoma
# SK-MEL-28 melanoma = system: SK-MEL-28 melanoma
# HCT-116 colon = system: HCT-116 colon
# A549 NSCLC = system: A549 NSCLC
# HT29 colon = system: HT29 colon
# HOP-62 NSCLC = system: HOP-62 NSCLC
# CAKI-1 renal = system: CAKI-1 renal
# KM20L2 colon = system: KM20L2 colon
# SW-620 colon = system: SW-620 colon
# MOLT-4 leukemia = system: MOLT-4 leukemia
# LOX IMVI melanoma = system: LOX IMVI melanoma
# 786-0 renal = system: 786-0 renal
# KM12 colon = system: KM12 colon
# SK-MEL-2 melanoma = system: SK-MEL-2 melanoma
# OVCAR-5 ovarian = system: OVCAR-5 ovarian
# OVCAR-8 ovarian = system: OVCAR-8 ovarian
# RXF 393 renal = system: RXF 393 renal
# NCI-H522 lung = system: NCI-H522 lung
# RPMI-8226 leukemia = system: RPMI-8226 leukemia
# DMS 273 small cell lung = system: DMS 273 small cell lung
# CCRF-CEM leukemia = system: CCRF-CEM leukemia
# DLD-1 colon = system: DLD-1 colon
# U251 CNS = system: U251 CNS
# OVCAR-3 ovarian = system: OVCAR-3 ovarian
# SNB-19 CNS = system: SNB-19 CNS
# NCI-H23 lung = system: NCI-H23 lung
# SR leukemia = system: SR leukemia
# TK-10 renal = system: TK-10 renal
# SF-295 CNS = system: SF-295 CNS
structure (smiles),measurement,setting,value
CC1=C[C@]2(O)C(=O)[C@H](C)C[C@H]3[C@@H](CC[C@@](C)(O)/C=C\2C1=O)C3(C)C,TGI,EKVX NSCLC,> 100 µM
same,TGI,SF-539 CNS,46.8 µM
same,TGI,SK-OV-3 ovarian,98 µM
same,TGI,ACHN renal,54.6 µM
same,TGI,UACC-257 melanoma,35.7 µM
same,TGI,HOP-18 NSCLC,98.9 µM
same,TGI,HOP-92 NSCLC,48.2 µM
same,TGI,UACC-62 melanoma,30.6 µM
same,TGI,NCI-H226 lung,> 79.5 µM
same,TGI,M19-MEL melanoma,33.4 µM
same,TGI,IGROV1 ovarian,53.1 µM
same,TGI,K-562 leukemia,> 100 µM
same,TGI,HCC-2998 colon,> 69.5 µM
same,TGI,LXFL 529 NSCLC,37.9 µM
same,TGI,UO-31 renal,> 100 µM
same,TGI,A498 renal,47.2 µM
same,TGI,SF-268 CNS,52.1 µM
same,TGI,COLO 205 colon,30.6 µM
same,TGI,OVCAR-4 ovarian,71.6 µM
same,TGI,DMS 114 small cell lung,> 53.9 µM
same,TGI,SNB-75 CNS,> 100 µM
same,TGI,HL-60(TB) leukemia,> 100 µM
same,TGI,SN12C renal,41.5 µM
same,TGI,NCI-H460 lung,> 57.6 µM
same,TGI,SNB-78 CNS,82.5 µM
same,TGI,MALME-3M melanoma,54.4 µM
same,TGI,RXF-631 renal,> 74.3 µM
same,TGI,HCT-15 colon,32.4 µM
same,TGI,XF 498 CNS,32.8 µM
same,TGI,SK-MEL-5 melanoma,50.8 µM
same,TGI,M14 melanoma,39.9 µM
same,TGI,SK-MEL-28 melanoma,33.1 µM
same,TGI,HCT-116 colon,30.9 µM
same,TGI,A549 NSCLC,> 100 µM
same,TGI,HT29 colon,> 71.6 µM
same,TGI,HOP-62 NSCLC,> 70.3 µM
same,TGI,CAKI-1 renal,55.4 µM
same,TGI,KM20L2 colon,19.5 µM
same,TGI,SW-620 colon,35.9 µM
same,TGI,MOLT-4 leukemia,> 62 µM
same,TGI,LOX IMVI melanoma,34.6 µM
same,TGI,786-0 renal,39.5 µM
same,TGI,KM12 colon,> 100 µM
same,TGI,SK-MEL-2 melanoma,37.9 µM
same,TGI,OVCAR-5 ovarian,> 100 µM
same,TGI,OVCAR-8 ovarian,46.9 µM
same,TGI,RXF 393 renal,19.8 µM
same,TGI,NCI-H522 lung,26.7 µM
same,TGI,RPMI-8226 leukemia,> 73.3 µM
same,TGI,DMS 273 small cell lung,52.3 µM
same,TGI,CCRF-CEM leukemia,> 100 µM
same,TGI,DLD-1 colon,34.9 µM
same,TGI,U251 CNS,52.7 µM
same,TGI,OVCAR-3 ovarian,38.1 µM
same,TGI,SNB-19 CNS,> 100 µM
same,TGI,NCI-H23 lung,72.6 µM
same,TGI,SR leukemia,45.2 µM
same,TGI,TK-10 renal,> 78.7 µM
same,TGI,SF-295 CNS,75.8 µM
CCOC(=O)/C(=C\c1ccc(N(CCC#N)CCC#N)cc1)NC(=O)c1cc([N+](=O)[O-])ccc1Cl,TGI,EKVX NSCLC,> 100 µM
same,TGI,SF-539 CNS,> 100 µM
same,TGI,SK-OV-3 ovarian,> 100 µM
same,TGI,ACHN renal,> 100 µM
same,TGI,UACC-257 melanoma,> 100 µM
same,TGI,HOP-18 NSCLC,> 100 µM
same,TGI,UACC-62 melanoma,> 100 µM
same,TGI,NCI-H226 lung,> 100 µM
same,TGI,M19-MEL melanoma,> 100 µM
same,TGI,IGROV1 ovarian,> 100 µM
same,TGI,K-562 leukemia,> 100 µM
same,TGI,HCC-2998 colon,> 100 µM
same,TGI,LXFL 529 NSCLC,> 100 µM
same,TGI,UO-31 renal,> 100 µM
same,TGI,A498 renal,> 100 µM
same,TGI,SF-268 CNS,> 100 µM
same,TGI,COLO 205 colon,> 100 µM
same,TGI,OVCAR-4 ovarian,> 100 µM
same,TGI,DMS 114 small cell lung,> 100 µM
same,TGI,SNB-75 CNS,> 100 µM
same,TGI,HL-60(TB) leukemia,> 100 µM
same,TGI,SN12C renal,> 100 µM
same,TGI,NCI-H460 lung,> 100 µM
same,TGI,SNB-78 CNS,> 100 µM
same,TGI,MALME-3M melanoma,> 100 µM
same,TGI,RXF-631 renal,> 100 µM
same,TGI,HCT-15 colon,> 100 µM
same,TGI,SK-MEL-5 melanoma,> 100 µM
same,TGI,M14 melanoma,> 100 µM
same,TGI,SK-MEL-28 melanoma,> 100 µM
same,TGI,HCT-116 colon,> 100 µM
same,TGI,A549 NSCLC,> 100 µM
same,TGI,HT29 colon,> 100 µM
same,TGI,HOP-62 NSCLC,> 100 µM
same,TGI,CAKI-1 renal,> 100 µM
same,TGI,KM20L2 colon,> 100 µM
same,TGI,SW-620 colon,> 100 µM
same,TGI,MOLT-4 leukemia,> 100 µM
same,TGI,LOX IMVI melanoma,> 100 µM
same,TGI,786-0 renal,> 100 µM
same,TGI,KM12 colon,> 100 µM
same,TGI,SK-MEL-2 melanoma,> 100 µM
same,TGI,OVCAR-5 ovarian,> 100 µM
same,TGI,OVCAR-8 ovarian,> 100 µM
same,TGI,RXF 393 renal,> 100 µM
same,TGI,NCI-H522 lung,> 100 µM
same,TGI,RPMI-8226 leukemia,> 100 µM
same,TGI,DMS 273 small cell lung,> 100 µM
same,TGI,CCRF-CEM leukemia,> 100 µM
same,TGI,DLD-1 colon,> 100 µM
same,TGI,U251 CNS,> 100 µM
same,TGI,OVCAR-3 ovarian,> 100 µM
same,TGI,SNB-19 CNS,> 100 µM
same,TGI,NCI-H23 lung,> 100 µM
same,TGI,TK-10 renal,> 100 µM
same,TGI,SF-295 CNS,> 100 µM
